Experimental data from publication PMC4684791 (Bioorganic & medicinal chemistry letters, 2015).

Assay: Microsomal stability assay
Type: in vitro ADME, rat

- Stability κ (decay constant, slope of log concentration vs time profile) (rat liver microsome, t1/2=ln2/κ): 0.116 min^−1
- half-life (rat, liver microsomes): 5.99 min
SMILES: COc1cc(NC(=O)c2ccccn2)ccc1Cl [Compound 2, ML128]
